Test results: PubChem BioAssay AID1963986 (Molecular Pharmacology Branch, DTP, NCI, 2024)
pIC50: −log10 of the molar value.

System: 171881-019-R-J1-PDC tumor spheroid viability
Experiment: Anticancer human tumor 171881-019-R-J1-PDC patient-derived invasive breast carcinoma cell line growth inhibition [PI3K]
Details: spheroids with HUVEC and MSC; for pIC50: curve of first compound; for viability, T/C: stronger effect = lower value
How it was run: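 Tumor cells were combined with HUVEC and MSCs into spheroids, then dosed with PI3K-inhibitor combinations over half-log ranges capped near clinical Cmax or 10 microM.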
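Further: spheroids exposed to compound for 7 days before viability read.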
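Wherever viability, T/C is given: 100% = DMSO vehicle-treated spheroids.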

Question: With CNC(=O)c1ccc(N2C(=S)N(c3ccc(C#N)c(C(F)(F)F)c3)C(=O)C2(C)C)cc1F + Cc1nc(NC(=O)N2CCCC2C(N)=O)sc1-c1ccnc(C(C)(C)C(F)(F)F)c1 as the compound, how does the pIC50 (second compound 0.0316 µM) read?
Answer: < 5.00

Question: And the pIC50 (second compound 0.1 µM)?
Answer: < 5.00

Question: What about the pIC50 (second compound 0.316 µM) of the same compound?
Answer: 5.33

Question: And the pIC50 (second compound 1 µM)?
Answer: > 7.50

Question: What about the pIC50 (second compound 3.16 µM) of the same compound?
Answer: > 7.50

Question: What about the pIC50 (second compound 10 µM) of the same compound?
Answer: > 7.50

Question: And the viability, T/C (second compound 0.0316 µM, first compound 0.0316 µM)?
Answer: 90.4%

Question: What about the viability, T/C (second compound 0.0316 µM, first compound 0.1 µM) of the same compound?
Answer: 81.5%

Question: And the viability, T/C (second compound 0.0316 µM, first compound 0.316 µM)?
Answer: 84.4%

Question: And the viability, T/C (second compound 0.0316 µM, first compound 1 µM)?
Answer: 87.7%

Question: What about the viability, T/C (second compound 0.0316 µM, first compound 3.16 µM) of the same compound?
Answer: 86%

Question: And the viability, T/C (second compound 0.0316 µM, first compound 10 µM)?
Answer: 69.7%

Question: What about the viability, T/C (second compound 0.1 µM, first compound 0.0316 µM) of the same compound?
Answer: 79%

Question: And the viability, T/C (second compound 0.1 µM, first compound 0.1 µM)?
Answer: 77%

Question: And the viability, T/C (second compound 0.1 µM, first compound 0.316 µM)?
Answer: 82.9%

Question: And the viability, T/C (second compound 0.1 µM, first compound 1 µM)?
Answer: 66.4%

Question: And the viability, T/C (second compound 0.1 µM, first compound 3.16 µM)?
Answer: 74.6%

Question: And the viability, T/C (second compound 0.1 µM, first compound 10 µM)?
Answer: 66.1%

Question: What about the viability, T/C (second compound 0.316 µM, first compound 0.0316 µM) of the same compound?
Answer: 58.6%

Question: And the viability, T/C (second compound 0.316 µM, first compound 0.1 µM)?
Answer: 50.2%

Question: What about the viability, T/C (second compound 0.316 µM, first compound 0.316 µM) of the same compound?
Answer: 50.3%

Question: What about the viability, T/C (second compound 0.316 µM, first compound 1 µM) of the same compound?
Answer: 52.5%

Question: What about the viability, T/C (second compound 0.316 µM, first compound 3.16 µM) of the same compound?
Answer: 57.2%

Question: What about the viability, T/C (second compound 0.316 µM, first compound 10 µM) of the same compound?
Answer: 45.1%

Question: And the viability, T/C (second compound 1 µM, first compound 0.0316 µM)?
Answer: 31.2%

Question: What about the viability, T/C (second compound 1 µM, first compound 0.1 µM) of the same compound?
Answer: 31.1%

Question: What about the viability, T/C (second compound 1 µM, first compound 0.316 µM) of the same compound?
Answer: 31.8%

Question: And the viability, T/C (second compound 1 µM, first compound 1 µM)?
Answer: 30.9%

Question: And the viability, T/C (second compound 1 µM, first compound 3.16 µM)?
Answer: 32.7%

Question: What about the viability, T/C (second compound 1 µM, first compound 10 µM) of the same compound?
Answer: 27.7%

Question: What about the viability, T/C (second compound 3.16 µM, first compound 0.0316 µM) of the same compound?
Answer: 13.2%

Question: What about the viability, T/C (second compound 3.16 µM, first compound 0.1 µM) of the same compound?
Answer: 12.7%

Question: And the viability, T/C (second compound 3.16 µM, first compound 0.316 µM)?
Answer: 13.1%

Question: What about the viability, T/C (second compound 3.16 µM, first compound 1 µM) of the same compound?
Answer: 12.6%

Question: What about the viability, T/C (second compound 3.16 µM, first compound 3.16 µM) of the same compound?
Answer: 12.5%

Question: What about the viability, T/C (second compound 3.16 µM, first compound 10 µM) of the same compound?
Answer: 11.1%

Question: What about the viability, T/C (second compound 10 µM, first compound 0.0316 µM) of the same compound?
Answer: 3.32%

Question: What about the viability, T/C (second compound 10 µM, first compound 0.1 µM) of the same compound?
Answer: 3.53%

Question: And the viability, T/C (second compound 10 µM, first compound 0.316 µM)?
Answer: 3.59%

Question: And the viability, T/C (second compound 10 µM, first compound 1 µM)?
Answer: 3.51%

Question: What about the viability, T/C (second compound 10 µM, first compound 3.16 µM) of the same compound?
Answer: 3.82%

Question: What about the viability, T/C (second compound 10 µM, first compound 10 µM) of the same compound?
Answer: 3.48%

Question: Which results are given for Cn1cnc2c(F)c(Nc3ccc(Br)cc3Cl)c(C(=O)NOCCO)cc21 + Cc1nc(NC(=O)N2CCCC2C(N)=O)sc1-c1ccnc(C(C)(C)C(F)(F)F)c1?
Answer: pIC50 (second compound 0.0316 µM): 6.36; pIC50 (second compound 0.1 µM): 6.98; pIC50 (second compound 0.316 µM): > 8.02; pIC50 (second compound 1 µM): > 8.02; pIC50 (second compound 3.16 µM): > 8.02; pIC50 (second compound 10 µM): > 8.02; viability, T/C (second compound 0.0316 µM, first compound 0.00949 µM): 92.1%; viability, T/C (second compound 0.0316 µM, first compound 0.03 µM): 78.9%; viability, T/C (second compound 0.0316 µM, first compound 0.0949 µM): 71.5%; viability, T/C (second compound 0.0316 µM, first compound 0.3 µM): 58.5%; viability, T/C (second compound 0.0316 µM, first compound 0.949 µM): 35.9%; viability, T/C (second compound 0.0316 µM, first compound 3 µM): 16%; viability, T/C (second compound 0.1 µM, first compound 0.00949 µM): 73.9%; viability, T/C (second compound 0.1 µM, first compound 0.03 µM): 59%; viability, T/C (second compound 0.1 µM, first compound 0.0949 µM): 50.3%; viability, T/C (second compound 0.1 µM, first compound 0.3 µM): 41.8%; viability, T/C (second compound 0.1 µM, first compound 0.949 µM): 26.8%; viability, T/C (second compound 0.1 µM, first compound 3 µM): 12.4%; viability, T/C (second compound 0.316 µM, first compound 0.00949 µM): 45.7%; viability, T/C (second compound 0.316 µM, first compound 0.03 µM): 38.8%; viability, T/C (second compound 0.316 µM, first compound 0.0949 µM): 33.3%; viability, T/C (second compound 0.316 µM, first compound 0.3 µM): 28.6%; viability, T/C (second compound 0.316 µM, first compound 0.949 µM): 15.1%; viability, T/C (second compound 0.316 µM, first compound 3 µM): 5.7%; viability, T/C (second compound 1 µM, first compound 0.00949 µM): 28.8%; viability, T/C (second compound 1 µM, first compound 0.03 µM): 23.3%; viability, T/C (second compound 1 µM, first compound 0.0949 µM): 19.9%; viability, T/C (second compound 1 µM, first compound 0.3 µM): 15.1%; viability, T/C (second compound 1 µM, first compound 0.949 µM): 6.73%; viability, T/C (second compound 1 µM, first compound 3 µM): 2.34%; viability, T/C (second compound 3.16 µM, first compound 0.00949 µM): 11.5%; viability, T/C (second compound 3.16 µM, first compound 0.03 µM): 9.26%; viability, T/C (second compound 3.16 µM, first compound 0.0949 µM): 7.86%; viability, T/C (second compound 3.16 µM, first compound 0.3 µM): 5.01%; viability, T/C (second compound 3.16 µM, first compound 0.949 µM): 1.92%; viability, T/C (second compound 3.16 µM, first compound 3 µM): 0.87%; viability, T/C (second compound 10 µM, first compound 0.00949 µM): 2.26%; viability, T/C (second compound 10 µM, first compound 0.03 µM): 2.27%; viability, T/C (second compound 10 µM, first compound 0.0949 µM): 1.71%; viability, T/C (second compound 10 µM, first compound 0.3 µM): 0.92%; viability, T/C (second compound 10 µM, first compound 0.949 µM): 0.78%; viability, T/C (second compound 10 µM, first compound 3 µM): 0.48%
